Consider 20 molecules from PubChem BioAssay (NCI).

Several values for one entry are separate records, joined by “and”; a condition that tells them apart may be missing. Equal entries are not always repeated.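 These data come from cells grown in 96-well plates and exposed to compound for 48 hours at five concentrations. GI50: concentration for 50% inhibition of growth. TGI marks complete inhibition of growth.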 Bounds are passed on as bounds.

The first test has as its system OVCAR-5 ovarian. The test can be described thus: inhibition of tumour cell growth, NCI panel, 48 h.
In the case of `CCN=C1C=CC(=C(c2ccc(N(C)C)cc2)c2ccc(N(C)C)cc2)c2ccccc21`, the GI50 was 0.215 µM and the TGI amounted to 1.19 µM.

Consider `Nc1ncnc2c1ccn2C1OC2COP(=O)(O)OC2C1O` (stereo not given), for which the TGI came to 46.9 µM.

`Cc1cc(N2CCCCC2)nc(N(CCNc2ccnc3cc(Cl)ccc23)Cc2ccco2)n1`: the GI50 was 2.4 µM and the TGI came out at 6.84 µM.

The molecule `O=C(O)[C@@H]1C2CC([C@@H]1C(=O)O)[C@H](N1C(=O)CCC1=O)[C@@H]2Br` (stereo not given in full) returned a TGI of over 100 µM.

On to `CCCN1C(=O)/C(=c2\sc3n(c2=O)C2C(NN=3)N(CC)C(=O)N2CC)c2ccccc21` (stereo not given), for which the GI50 was 1.14 µM and the TGI is 24.1 µM.

For `CCn1c(-c2nonc2N)nc2cncc(C(=O)N3CCNCC3)c21`, the GI50 is over 25 µM and the TGI was over 25 µM.

`c1ccc2[nH]c(-c3ccc(N4CCN(c5ccc(-c6nc7ccccc7[nH]6)cc5)CC4)cc3)nc2c1`: the GI50 was 52 µM and the TGI is over 100 µM.

For the molecule `CCN(CC)CCOc1ccc(C(=C(C)c2ccc(Cl)cc2)c2ccc(OCCN(CC)CC)cc2)cc1`, the GI50 was 0.664 µM and the TGI was 1.57 µM.

For `C[C@]12CC[C@H]3[C@@H](CCC4=CC(=O)CC[C@@H]43)[C@@H]1CC[C@@H]2OC(=O)N(CCCl)N=O`, the GI50 was 20.8 µM and the TGI came out at 49.9 µM.

The molecule `CC12CCC(=O)C=C1CCC1C2CCC2(C)C(C(=O)Cn3cnc4c(=S)nc[nH]c43)CCC12` (stereo not given) gave a TGI of over 100 µM.

As to `CN(C)CCNC(=O)c1cccn2c(=O)c3cc4ccccc4cc3nc12`, the GI50 was 0.217 µM and the TGI is 13.7 µM.

The molecule `Cn1c(=O)c2[nH]c(/N=N/N3CCN(CCO)CC3)nc2n(C)c1=O` came in with a TGI of over 100 µM.

As for `COc1cc2c(cc1OC)-c1ccc3cc4c(cc3c1N(CCN1CCCC1)C2)OCO4`, the GI50 is 1.34 µM and the TGI was 4.9 µM.

Consider `c1ccc2nc(Cn3c[n+](Cc4ccc5ccccc5n4)c4ccccc43)ccc2c1`, for which the GI50 is 2.43 µM and the TGI is 13.7 µM.

Regarding `O=C(O)CS(=O)(=O)C(c1ccccc1)c1ccccc1`, the TGI is over 100 µM.

For `C=C(C)[C@@H]1CC[C@]2(C(=O)NCCCN)CC[C@]3(C)[C@H](CC[C@@H]4[C@@]5(C)CC[C@H](O)C(C)(C)[C@@H]5CC[C@]43C)[C@@H]12`, the GI50 is 14.8 µM and the TGI was found to be 31.3 µM.

In the case of `O=C(Nc1cccc(Cl)c1)Nc1ncc(CCNc2ncnc3ccsc23)s1`, the GI50 was 9.88 µM and > 10 µM; the TGI is 25.5 µM and > 10 µM.

As for `CCOC(=O)Cc1c[nH]c(=S)[nH]c1=O`, the GI50 is over 100 µM and the TGI was over 100 µM.

`CCc1c(C)[nH]c(/C=C2\N=C(c3ccc[nH]3)C=C2OC)c1C`: the GI50 is 0.413 µM and the TGI was 7.3 µM.

As to `CCc1ccc(NC(=O)Nc2c[nH]c3ccccc23)cc1`, the GI50 is 34 µM and the TGI is over 57.9 µM.

A further test has as its system HOP-92 NSCLC. Description: inhibition of tumour cell growth, NCI panel, 48 h.
Turning to `CCN=C1C=CC(=C(c2ccc(N(C)C)cc2)c2ccc(N(C)C)cc2)c2ccccc21`, the GI50 was 0.0414 µM and the TGI is 0.352 µM.

With `Nc1ncnc2c1ccn2C1OC2COP(=O)(O)OC2C1O` (stereo not given), the TGI came out at 7.41 µM.

Consider `Cc1cc(N2CCCCC2)nc(N(CCNc2ccnc3cc(Cl)ccc23)Cc2ccco2)n1`, for which the GI50 is 5.73 µM and the TGI came out at 21.7 µM.

Turning to `O=C(O)[C@@H]1C2CC([C@@H]1C(=O)O)[C@H](N1C(=O)CCC1=O)[C@@H]2Br` (stereo not given in full), the TGI was over 100 µM.

As for `CCCN1C(=O)/C(=c2\sc3n(c2=O)C2C(NN=3)N(CC)C(=O)N2CC)c2ccccc21` (stereo not given), the GI50 was 0.885 µM and the TGI was determined as 16.3 µM.

Regarding `CCn1c(-c2nonc2N)nc2cncc(C(=O)N3CCNCC3)c21`, the GI50 is over 25 µM and the TGI was over 25 µM.

As to `c1ccc2[nH]c(-c3ccc(N4CCN(c5ccc(-c6nc7ccccc7[nH]6)cc5)CC4)cc3)nc2c1`, the GI50 was over 100 µM and the TGI was over 100 µM.

Turning to `CCN(CC)CCOc1ccc(C(=C(C)c2ccc(Cl)cc2)c2ccc(OCCN(CC)CC)cc2)cc1`, the GI50 was 0.536 µM and the TGI came to 2.19 µM.

Take `C[C@]12CC[C@H]3[C@@H](CCC4=CC(=O)CC[C@@H]43)[C@@H]1CC[C@@H]2OC(=O)N(CCCl)N=O`: the GI50 is 0.391 µM and the TGI is 17.5 µM.

As for `CC12CCC(=O)C=C1CCC1C2CCC2(C)C(C(=O)Cn3cnc4c(=S)nc[nH]c43)CCC12` (stereo not given), the TGI came to 37.7 µM.

Take `CN(C)CCNC(=O)c1cccn2c(=O)c3cc4ccccc4cc3nc12`: the GI50 was 0.538 µM and the TGI is over 100 µM.

For the molecule `Cn1c(=O)c2[nH]c(/N=N/N3CCN(CCO)CC3)nc2n(C)c1=O`, the TGI was over 100 µM.

With `COc1cc2c(cc1OC)-c1ccc3cc4c(cc3c1N(CCN1CCCC1)C2)OCO4`, the GI50 is 1.79 µM and the TGI was 12 µM.

As to `c1ccc2nc(Cn3c[n+](Cc4ccc5ccccc5n4)c4ccccc43)ccc2c1`, the GI50 was 0.93 µM and the TGI was 4.3 µM.

`O=C(O)CS(=O)(=O)C(c1ccccc1)c1ccccc1` displayed a TGI of over 100 µM.

Consider `C=C(C)[C@@H]1CC[C@]2(C(=O)NCCCN)CC[C@]3(C)[C@H](CC[C@@H]4[C@@]5(C)CC[C@H](O)C(C)(C)[C@@H]5CC[C@]43C)[C@@H]12`, for which the GI50 is 10.8 µM and the TGI was found to be 35.4 µM.

Consider `O=C(Nc1cccc(Cl)c1)Nc1ncc(CCNc2ncnc3ccsc23)s1`, for which the GI50 was 0.549 µM and 1.55 µM; the TGI is 10.9 µM and > 10 µM.

As to `CCOC(=O)Cc1c[nH]c(=S)[nH]c1=O`, the GI50 was over 100 µM and the TGI was over 100 µM.

On to `CCc1c(C)[nH]c(/C=C2\N=C(c3ccc[nH]3)C=C2OC)c1C`, for which the GI50 is 0.135 µM and the TGI came out at 0.682 µM.

With `CCc1ccc(NC(=O)Nc2c[nH]c3ccccc23)cc1`, the GI50 was 12 µM and the TGI is over 53.1 µM.
